Experimental data from patent US9974782B2, “Phosphodiesterase inhibitors and uses thereof” (THE TRUSTEES OF COLUMBIA UNIVERSITY IN THE CITY OF NEW YORK, priority 2008, dated 2018).
pIC50: −log10 of the molar value. Several values for one entry are separate records, joined by “and”; a condition that tells them apart may be missing. Identical values can stand only once.

What was measured:
[1] = test system: CREB phosphorylation; format: cell-based, mouse
[2] = test system: APP/PS1 mice; test: Electrophysiological analysis (BST, LTP) of slices from mice previously treated i.p.; format: in vivo, mouse
Method: To add depth to the analysis of the functional changes that underlie the striking effects of sildenafil on APP/PS1 mice behavioral performance, synaptic function in hippocampi from the same mice was examined. […] The drug was administered either acutely or for 1 course of 3 week treatment. […] This dose yields concentrations of 2.5 μM cGMP in the hippocampus^[…]. […] Radial-arm water-maze (RAWM) was performed for 3 weeks. Then, the animals were sacrificed for electrophysiological recordings. To decide the time of administration of sildenafil in the acute experiments, a series of studies was performed in which the inhibitor was injected i.p. at 5 min before the electric shock or at 5 min before the first acquisition trial with the radial arm water maze. […] Thus, all the behavioral experiments on the acute effects of sildenafil reported in the result section were performed with injection after the training. Animals were sacrificed by cervical dislocation followed by decapitation. Hippocampi were quickly removed. Transverse hippocampal slices (400 μm) were cut and recorded according to standard procedures^[…]. For example, following cutting hippocampal slices were transferred to a recording chamber where they were maintained at 29° C. and perfused with artificial cerebrospinal fluid (ACSF) continuously bubbled with 95% O2 and 5% CO2. […] CA1 fEPSPs were recorded by placing both the stimulating and the recording electrodes in CA1 stratum radiatum. BST was assayed either by plotting the peak amplitude of the fiber volley against the slope of the fEPSP, or by plotting the stimulus voltages against slopes of fEPSP. For LTP experiments, a 15 min baseline was recorded every min at an intensity that evokes a response 35% of the maximum evoked response. […] Responses were recorded for 2 hrs after tetanization and measured as field-excitatory-post-synaptic potential (fEPSP) slope expressed as percentage of baseline. The results were expressed as mean±Standard Error Mean (SEM).

[3] = test system: human Aβ40 and Aβ42 levels; test: Determination of Aβ levels (ELISA of cerebral cortex)
[4] = humans; cited from earlier work
[5] = mouse, in vivo, po
Method: Timeline: 24 h-7 days. In the timeline, no fatal effects were observed.
Dosage: • Single dose at 500 mg/kg, i.p. • Single dose at 1000 mg/kg, i.p. • Single dose at 2000 mg/kg, p.o.

[6] = biological target: PDE5A1 (Homo sapiens, UniProt O76074); test: PDE assay for compound screening (IMAP TR-FRET kit, FAM-cGMP, fluorescence polarization); format: biochemical; settings: 100 nM cGMP substrate; read-out: IC50 for PDE5
Method: Protocol of PDE Assay for Compound Screening
Materials: IMAPTM TR-FRET Screening Express with Progressive Binding Kit from Molecular Devices (R8160); FAM-Cyclic-3′,5′-GMP from Molecular Devices (R7507); PDE5 inhibitors.
Step 1: A dilution series of the inhibitors ranging from 300 pM to 10 μM in 1× PDE Assay Buffer are made. Subsequently, FAM-cGMP is diluted to 200 nM in 1×PDE Assay Buffer. PDE5A1 enzymes are then diluted to 0.125 ng/μl in 1×PDE Assay Buffer.
Step 2: The following components are added to a low binding black plate: a) […] of 200 nM FAM-cGMP (Final concentration will be 100 nM); b) 5 μl of the compounds (Final concentration=30 pM to 1 μM); c) 20 μl of PDE5A1 (0.125 ng/l) (Final amount=2.5 ng/reaction). The components are mixed and incubated at room temp. for 1 hour.
Step 3: A 1× reagent-binding buffer (75% 1× Binding Buffer A and 25% 1× Binding Buffer B) is then prepared followed by a Binding Solution that is prepared by diluting Binding Reagent with 1× reagent-binding Buffer (1:600). 120 μl of Binding Solution is then added to each well and the plate is incubated at room temperature for 1 hour.
Step 4: Fluorescence polarization is measured at excitation of 485 nm and emission of 520 nm in BioTek Synergy™ 2 microplate reader.

[7] = 3 mg/kg, treated at 3 months, tested at 6-8 months
[8] = 6-8 month-old APP/PS1, 3 mg/Kg i.p. for 3 weeks at 3 months of age
[9] = 6-8 month-old WT, 3 mg/Kg i.p. for 3 weeks at 3 months of age
[10] = treated at 3 months, tested at 6-8 months, APP/PS1
[11] = 3-month-old APP/PS1, daily injections for 3 weeks
[12] = APP/PS1 at 7-10 months, injections for 3 weeks at 3 months

With `CCCc1nn(C)c2c(=O)[nH]c(-c3cc(S(=O)(=O)N4CCN(C)CC4)ccc3OCC)nc12` [sildenafil, 5-[2-ethoxy-5-(4-methyl-1-piperazinylsulphonyl)phenyl]-1-methyl-3-n-propyl-1,6-dihydro-7H-pyrazolo[4,3-d]pyrimidin-7-one] the “phospho-CREB immunofluorescence after tetanus, % of control” value [1] was 162.58±17.09% and 163.54±13.52% and 163.6±15.14% and 151.73±12.24%, the “minimum time needed for a positive effect on BST” value [2, 7] was 2 weeks and the “minimum time needed for a positive effect on LTP” value [2, 7] was 2 weeks. The “BST, fEPSP slope” value [2, 8] was 1.03±0.12 V/sec, the “BST, fEPSP slope as % of vehicle-treated APP/PS1 mice” value [2, 8] was about 160% and the “LTP as % of sildenafil-treated WT mice” value [2, 8] was about 100%. The “LTP, % of baseline at 120 min” value [2, 8] was 233.81±30.47%, the “BST, fEPSP slope” value [2, 9] was 1.01±0.12 V/sec and the “BST, slope of input-output curve as % of vehicle-treated WT mice” value [2, 9] was about 94%. For the same compound, the “LTP as % of vehicle-treated mice” value [2, 9] was about 112%, the “LTP, % of baseline” value [2, 9] was 234.67±17.19% and the “minimum concentration needed to improve BST” value [2, 10] was 3 mg/kg. The “minimum concentration needed to improve LTP” value [2, 10] was 3 mg/kg, the “minimum time needed for a positive effect on Aβ40 levels” value ([3]; 3 mg/kg at 3 months of age, measured at 7-8 months) was 3 weeks and the “minimum time needed for a positive effect on Aβ40” value ([3]; 3 mg/kg, measured immediately after treatment) was 2 weeks. The “minimum effective dose that decreases Aβ40 and Aβ42 levels” value ([3]; 3-month-old APP/PS1) was 3 mg/kg, the “Aβ40 as % of vehicle-treated APP/PS1 mice” value [3, 11] was about 64% and the Aβ40 level [3, 11] was 1.71±0.22 ng/mg cortex. For the same compound, the “Aβ42 as % of vehicle-treated APP/PS1 mice” value [3, 11] was about 80%, the Aβ42 level [3, 11] was 3.56±0.23 ng/mg cortex and the “effect on Aβ levels in words” value ([3]; APP/PS1, 1.5 mg/kg for 3 weeks) was “did not decrease Aβ levels”. The “Aβ40 as % of vehicle-treated APP/PS1 mice” value [3, 12] was about 65%, the Aβ40 level [3, 12] was 49.59±7.93 ng/mg cortex and the “Aβ42 as % of vehicle-treated APP/PS1 mice” value [3, 12] was about 73%. The Aβ42 level [3, 12] was 32.55±3.27 ng/mg cortex, the “minimum effective dose that decreases Aβ40 and Aβ42 levels” value ([3]; treated at 3 months, measured at 7-10 months) was 3 mg/kg and the in vivo half-life [4] was about 4 h.

With `COc1ccc(CNc2c(CO)cnc3c(C4CC4)cc(C#N)cc23)cc1Cl` [YF012403, 4-(3-chloro-4-methoxybenzylamino)-8-cyclopropyl-3-(hydroxymethyl)-quinoline-6-carbonitrile] the “safe dose in acute toxicity test” value [5] was “up to 2 g/kg” and the pIC50 [6] was 8.92 and 9.57.
